Assay results as given in the NIST ThermoML archive (doi:10.1016/j.fluid.2014.06.024).
Numbers after ± are expanded uncertainties.

How the values were obtained:
[1] = 101.33 kPa, Liquid; for speed of sound: Sing-around technique in a fixed-path interferometer; for mass density: Vibrating tube method
[2] = molar heat capacity at constant pressure; conditions: 101.33 kPa, Liquid, Small sample (50 mg) DSC

| Structure (SMILES) | speed of sound ([1]; 298.15 K) [m/s] | mass density ([1]; 298.15 K) [kg/m3] | speed of sound ([1]; 303.15 K) [m/s] | mass density ([1]; 303.15 K) [kg/m3] | speed of sound ([1]; 308.15 K) [m/s] | mass density ([1]; 308.15 K) [kg/m3] | molar heat capacity at constant pressure ([2]; 298.15 K) [J/K/mol] | molar heat capacity at constant pressure ([2]; 303.15 K) [J/K/mol] | molar heat capacity at constant pressure ([2]; 308.15 K) [J/K/mol] |
| --- | --- | --- | --- | --- | --- | --- | --- | --- | --- |
| c1ccccc1 [benzene] | 1299.4 ± 0.8 | 873.54 ± 1 | 1276.1 ± 0.82 | 868.2 ± 1 | 1252.9 ± 0.82 | 862.84 ± 1 | 135.18 ± 2.1 | 136.4 ± 2.1 | 137.61 ± 2.1 |
| Cc1ccccc1 [toluene] | 1304.6 ± 1 | 862.18 ± 1 | 1283.2 ± 1 | 857.51 ± 1 | 1261.8 ± 1 | 852.82 ± 1 | 157.18 ± 2.4 | 158.61 ± 2.5 | 160.09 ± 2.5 |
| Cc1ccccc1C [1,2-dimethylbenzene] | 1346.2 ± 0.8 | 875.91 ± 1 | 1326.2 ± 0.8 | 871.7 ± 1 | 1306.1 ± 0.8 | 867.48 ± 1 | 187.55 ± 2.9 | 189.11 ± 2.9 | 190.62 ± 3 |
| C1CCOCC1 [tetrahydropyran] | 1269.8 ± 0.9 | 879.13 ± 1 | 1246.8 ± 0.9 | 873.99 ± 1 | 1224.4 ± 0.9 | 868.83 ± 1 | 149.62 ± 2.3 | 151.22 ± 2.3 | 153.08 ± 2.4 |
| Cc1ccccc1Cl [2-chlorotoluene] | 1298.7 ± 1 | 1077.3 ± 1 | 1280.7 ± 1 | 1072.5 ± 1 | 1262.7 ± 1 | 1067.6 ± 1 | 178.21 ± 2.8 | 180.01 ± 2.8 | 181.71 ± 2.8 |
